Data reported in ChEMBL document CHEMBL4422633, “Antioxidant-Inspired Drug Discovery: Antitumor Metabolite Is Formed in Situ from a Hydroxycinnamic Acid Derivative upon Free-Radical Scavenging” (J Med Chem, 2019).

Key:
NCI-H460 [1] = assay: Induction of apoptosis in human NCI-H460 cells assessed as late apoptotic cells at 40 nM after 24 hrs by Annexin V/propidium iodide-staining based flow cytometry (reference value: 0.93 +/- 0.04%); format: functional
HaCaT [2] = assay: Induction of apoptosis in human HaCaT cells assessed as late apoptotic cells at 40 nM after 24 hrs by Annexin V/propidium iodide-staining based flow cytometry (reference value: 0.93 +/- 0.04%); format: cell-based; settings: 0.04 µM
NCI-H460 [3] = assay: Induction of apoptosis in human NCI-H460 cells assessed as early apoptotic cells at 40 nM after 24 hrs by Annexin V/propidium iodide-staining based flow cytometry (reference value: 0.45 +/- 0.01%); format: functional
HaCaT [4] = assay: Induction of apoptosis in human HaCaT cells assessed as early apoptotic cells at 40 nM after 24 hrs by Annexin V/propidium iodide-staining based flow cytometry (reference value: 0.23 +/- 0.01%); format: cell-based; settings: 0.04 µM
NCI-H661 = assay: Cytotoxicity against human NCI-H661 cells assessed as reduction in cell viability after 72 hrs by MTT assay; format: functional, cell-based; settings: NCI-H661, 72 h
HaCaT [5] = assay: Induction of apoptosis in human HaCaT cells assessed as necrotic cells at 40 nM after 24 hrs by Annexin V/propidium iodide-staining based flow cytometry (reference value: 1.88 +/- 0.02%); format: cell-based; settings: 0.04 µM
HaCaT [6] = assay: Cytotoxicity against human HaCaT cells assessed as reduction in cell viability after 72 hrs by MTT assay; format: cell-based
A549 = assay: Cytotoxicity against human A549 cells assessed as reduction in cell viability after 72 hrs by MTT assay; format: functional, cell-based; settings: A549, 72 h
[7] = Cytotoxicity against human NCI-H460/R cells transfected with MDR assessed as reduction in cell viability after 72 hrs by MTT assay; format: functional, cell-based; settings: NCI-H460, 72 h
SiHa = assay: Cytotoxicity against human SiHa cells assessed as reduction in cell viability after 72 hrs by MTT assay; format: functional, cell-based
NCI-H460 [8] = assay: Induction of apoptosis in human NCI-H460 cells assessed as necrotic cells at 40 nM after 24 hrs by Annexin V/propidium iodide-staining based flow cytometry (reference value: 2.13 +/- 0.02%); format: functional
[9] = Cytotoxicity against mouse L5178B1 cells transfected with pHa MDR1/A retrovirus assessed as reduction in cell viability after 72 hrs by MTT assay; format: functional, cell-based; settings: MDR1, 72 h
NCI-H460 [10] = assay: Induction of apoptosis in human NCI-H460 cells assessed as viable cells at 40 nM after 24 hrs by Annexin V/propidium iodide-staining based flow cytometry (reference value: 96.49 +/- 0.96%); format: functional; settings: NCI-H460, 24 h, read-out: Activity
[11] = Cytotoxicity against mouse L5178 cells assessed as reduction in cell viability after 72 hrs by MTT assay; format: functional, cell-based; settings: L5178, 72 h
[12] = Induction of apoptosis in human HaCaT cells assessed as viable cells at 40 nM after 24 hrs by Annexin V/propidium iodide-staining based flow cytometry (reference value: 95.63 +/- 3.83%); format: cell-based; settings: read-out: Activity
NCI-H460 [13] = assay: Cytotoxicity against human NCI-H460 cells assessed as reduction in cell viability after 72 hrs by MTT assay; format: functional, cell-based; settings: NCI-H460, 72 h

SMILES: COc1cccc2c1C(=O)c1c(O)c3c(c(O)c1C2=O)C[C@@](O)(C(=O)CO)C[C@@H]3O[C@H]1C[C@H](N)[C@H](O)[C@H](C)O1 [DOXORUBICIN]
- Activity (NCI-H460 [1]): 4.11%
- Activity (HaCaT [2]): 3.04%
- Activity (NCI-H460 [3]): 4.05%
- Activity (HaCaT [4]): 11.03%
- IC50 (NCI-H661): 0.35 µM
- Activity (HaCaT [5]): 7.82%
- IC50 (HaCaT [6]): 0.03 µM
- IC50 (A549): 0.55 µM
- IC50 [7]: 1.89 µM
- IC50 (SiHa): 0.76 µM
- Activity (NCI-H460 [8]): 6.7%
- IC50 [9]: 11.8 µM
- viability at 0.04 µM (NCI-H460 [10]): 85.1%
- IC50 [11]: 0.41 µM
- viability at 24 h, 0.04 µM [12]: 78.1%
- IC50 (NCI-H460 [13]): 0.04 µM
